# Test system: Jurkat T cells
# Experiment: EV secretion, Nef-GFP (Figure 6A), Jurkat T cells
# Type: cell-based
# Conditions: 349.6 nM SMRwt-CPP or 357.27 nM VIMwt-CPP, 24 h
# Experimental: To investigate whether SMRwt and VIMwt peptides can suppress extracellular vesicle (EV) secretion, Jurkat T cells were co-transfected with wild-type Nef-GFP and treated with either SMRwt-CPP (349.6 nM) or VIMwt-CPP (357.27 nM) peptides. GFP fluorescence in the culture media was used as a proxy for Nef-associated EV release after 24 h of incubation.
# Figure 6 SMRwt and VIMwt peptides decrease extracellular vesicle secretion in Jurkat T cells and breast cancer cells. (A) Jurkat T cells were co-transfected with 1 µg of wild-type Nef-GFP plasmid and treated with either 349.6 nM SMRwt-CPP or 357.27 nM VIMwt-CPP peptides. After 24 h at 37 °C, culture media were collected and assayed for extracellular vesicle (EV) secretion using GFP fluorescence as a proxy. (B,C) MDA-MB-231 and MCF-7 breast cancer cells were treated with either 349.6 nM SMRwt-CPP or 357.27 nM VIMwt-CPP peptides for 24 h at 37 °C. Cells were then labeled with 5 µM N-Rh-PE at 4 °C for 1 h, washed, and incubated in fresh media for an additional 24 h. Supernatants were assayed for EV secretion using N-Rh-PE fluorescence. Bar graphs show relative EV levels. Data represent mean ± SD from three independent experiments. Statistical comparisons were performed using appropriate tests; p-values are indicated. […]
substance,measurement,value
H-LYEEEMREGRKKRRQRRRPPQ - OH [VIMwt-CPP],"p, peptide vs Nef-GFP alone, EV secretion",< 0.0006
